Data taken from patent US20240076626A1, “HYDROGEN PEROXIDE EVOLVED HOST CELL” (MedImmune Limited, priority 2020, published 2024).

Key:
H2O2 evolved host cells [1] = assay: ChemStress assay, survival with prooxidant chemical compounds (PrestoBlue); type: cell-based, Chinese hamster; details: 72 hours growth in the presence of the stressor
Method: To confirm the H2O2 evolved host cell's ability to resist oxidative stress, the cells were evaluated for survival in response to several prooxidant chemical compounds selected to mimic bioreactor stressors: […] These chemicals affect a diverse subset of intracellular redox pathways such as those involved in GSH biosynthesis and turnover (BSO and MS) (Lee et al. (1992) “Effects of buthionine sulfoximine treatment on cellular glutathione levels and cytotoxicities of cisplatin, carboplatin and radiation in human stomach and ovarian cancer cell lines”. Korean J Intern Med. 7(2):111-7; Dunning et al. (2013) “Glutathione and antioxidant enzymes serve complementary roles in protecting activated hepatic stellate cells against hydrogen peroxide-induced cell death”. Biochim Biophys Acta. 1832(12):2027-34), intracellular ROS generation (MSB) (Beck et al. (2011) “Ascorbate/menadione-induced oxidative stress kills cancer cells that express normal or mutated forms of the oncogenic protein Bcr-Abl. An in vitro and in vivo mechanistic study”. […] J Neurosci Res. 64(6):646-53). Chem stress assays were performed according to the manufacturer's instructions (ChemStress®, […], Ireland). In brief, CHO or H2O2 evolved host cells were seeded into […] ChemStress plates (ChemStress®, […], Ireland) at 18,000 cells/well in 90 μl proprietary medium supplemented with 6 mM L-glutamine. A control well was incubated with medium alone. Plates were incubated for 72-hours in a static incubator at 36.5° C., 6% CO2. Following this, 10 μl of neat PrestoBlue dye (Thermo Fisher Scientific, UK) was added to all wells before plates were mixed for 20 seconds and incubated for a further 30 minutes at 36.5° C., 6% CO2. Plates were analyzed using a PHERAstar plate reader (BMG LABTECH, Ortenberg, Germany) with preconfigured protocols (excitation 560 nm, emission 590 nm). Data was analyzed, using the […] software ([…], Ireland).

H2O2 evolved host cells [2] = assay: cells; details: Cricetulus griseus
Method: The H2O2 evolved host and CHO control host were passaged to 90 PDL and 7 PDL respectively in CD-CHO supplemented with 6 mM glutamine after which both hosts were re-challenged with 37 mM H2O2 and viabilities recorded (viability measured on days 1, 2, 4, 7, 10, 11 and 12)
Specifically, CHO-K1 cells adapted to grow in suspension culture (CHO Control) were revived in chemically-defined (CD) CHO medium (Life technologies, Paisley, UK) supplemented with 6 mM L-glutamine (Life technologies, Paisley, UK) and passaged three times at 0.2×10^6 cells/ml in a 30 ml culture volume. When cells reached 99% viability, they were incubated for 1 hour with 14 mM H2O2 (Sigma-Aldrich, UK) before centrifugation at 130 g for 5 minutes and resuspended in 30 ml fresh CD CHO supplemented with 6 mM L-glutamine. CHO cells were left to recover until cells reached 70% viability. This process was repeated an additional three times resulting in a total of four exposures to 14 mM H2O2, in which cells gradually recovered over a period of 10-20 days, with the medium being replenished periodically, until cells reached 70% viability. The cells were then subjected to one round of 18.5 mM H2O2 treatment following the method above until cells reached 90% viability. […]

H2O2 evolved host A = assay: Survival of BisAb-expressing pools in the presence of MSB (Vi-Cell viability); type: cell-based, Chinese hamster; details: 6 μM MSB, up to 72 hours, cells expressing BisAb A, versus H2O treated control
Method: (§1) Expressing pools were compared for survival in the presence of the widely used prooxidant, menadione sodium bisulphite (MSB). Briefly, CHO Control or H2O2 evolved host cells expressing BisAbs A or BisAb B were seeded at 0.3×10^6 cells/ml into 30 ml of proprietary medium supplemented with 50 μM MSX. A total of 6 μM Menadione Sodium Bisulfite (MSB) (Sigma-Aldrich, UK) or water was added to test and control cultures, respectively. Cells were assessed for viability and viable cell density (VCD) using a Vi-Cell XR Cell Viability Analyser (Beckman Coulter, USA) at 24, 48 and 72 hours post addition of MSB or water.

H2O2 evolved host B = assay: as above; type: cell-based, Chinese hamster; details: 6 μM MSB, up to 72 hours, cells expressing BisAb B, versus H2O treated control
Method: as §1

SMILES | viability of H2O2 evolved host cells compared to CHO control cells (H2O2 evolved host cells [1]) | viability at 37000 µM (H2O2 evolved host cells [2]) [%] | viability (H2O2 evolved host A) | viability (H2O2 evolved host B)
CCCCS(=N)(=O)CCC(N)C(=O)O (stereo not shown) [BSO, Buthionine Sulfoximine] | significantly improved viabilities |  |  | 
[Cl][Co][Cl] [CoCl, Cobalt chloride] | significantly improved viabilities |  |  | 
OO [H2O2, hydrogen peroxide] |  | ~50 |  | 
O=C(O)CC(S)C(=O)O (stereo not shown) [MS, Mercaptosuccinic Acid] | significantly improved viabilities |  |  | 
CC1(S(=O)(=O)[O-])CC(=O)c2ccccc2C1=O.[Na+] (stereo not shown) [MSB, Menadione Sodium Bisulphite] | significantly improved viabilities |  | comparable with H2O treated controls | comparable with H2O treated controls
